Assay results: ChEMBL document CHEMBL4002629, “Design, synthesis and biological evaluation of novel 3-substituted 4-anilino-coumarin derivatives as antitumor agents” (Bioorg Med Chem Lett, 2017)
Calls of active or inactive are those of the source. No cut-off for these calls is given here.

Key:
HCT-116 = assay: Antiproliferative activity against human HCT116 cells after 48 hrs by MTT assay; assay type: functional, cell-based; conditions: HCT-116, 48 h
HepG2 = assay: Antiproliferative activity against human HepG2 cells after 48 hrs by MTT assay; assay type: functional, cell-based; conditions: HepG2, 48 h
MCF7 [1] = assay: Antiproliferative activity against human MCF7 cells after 48 hrs by MTT assay; assay type: functional, cell-based; conditions: MCF7, 48 h
PANC-1 = assay: Antiproliferative activity against human PANC1 cells after 48 hrs by MTT assay; assay type: functional, cell-based; conditions: PANC-1, 48 h
MCF7 [2] = assay: Induction of apoptosis in human MCF7 cells assessed as late apoptotic cells at 15 uM after 48 hrs by annexin V-propidium iodide staining-based flow cytometry (reference value: 0.1%); assay type: functional
MCF7 [3] = assay: Induction of apoptosis in human MCF7 cells assessed as necrotic cells at 5 uM after 48 hrs by annexin V-propidium iodide staining-based flow cytometry (reference value: 0.3%); assay type: functional
MCF7 [4] = assay: Induction of apoptosis in human MCF7 cells assessed as necrotic cells at 15 uM after 48 hrs by annexin V-propidium iodide staining-based flow cytometry (reference value: 0.3%); assay type: functional
MCF7 [5] = assay: Cell cycle arrest in human MCF7 cells assessed as accumulation at G2/M phase at 5 uM after 48 hrs by propidium iodide staining-based flow cytometric method (reference value: 24.16 +/- 2.29%); assay type: functional
MCF7 [6] = assay: Induction of apoptosis in human MCF7 cells assessed as viable cells at 5 uM after 48 hrs by annexin V-propidium iodide staining-based flow cytometry (reference value: 96.3%); assay type: functional; conditions: MCF7, 48 h, read-out: Activity
HUVEC = assay: Antiproliferative activity against HUVEC after 48 hrs by MTT assay; assay type: cell-based; conditions: Homo sapiens
MCF7 [7] = assay: Cell cycle arrest in human MCF7 cells assessed as accumulation at G2/M phase at 15 uM after 48 hrs by propidium iodide staining-based flow cytometric method (reference value: 24.16 +/- 2.29%); assay type: functional
MCF7 [8] = assay: Induction of apoptosis in human MCF7 cells assessed as cell rounding up at 5 to 15 uM after 24 hrs by Hoechst 33258 staining-based inverted microscopy; assay type: functional
[9] = Selectivity index, ratio of IC50 for HUVEC to IC50 for human MCF7 cells
[10] = Selectivity index, ratio of IC50 for HUVEC to IC50 for human HCT116 cells
MCF7 [11] = assay: Induction of apoptosis in human MCF7 cells assessed as membrane blebbing at 5 to 15 uM after 24 hrs by Hoechst 33258 staining-based inverted microscopy; assay type: functional, cell-based
MCF7 [12] = assay: Induction of apoptosis in human MCF7 cells assessed as early apoptotic cells at 10 uM after 48 hrs by annexin V-propidium iodide staining-based flow cytometry (reference value: 3.2%); assay type: functional
MCF7 [13] = assay: Induction of apoptosis in human MCF7 cells assessed as cell distortion at 5 to 15 uM after 24 hrs by Hoechst 33258 staining-based inverted microscopy; assay type: functional
MCF7 [14] = assay: Induction of apoptosis in human MCF7 cells assessed as early apoptotic cells at 15 uM after 48 hrs by annexin V-propidium iodide staining-based flow cytometry (reference value: 3.2%); assay type: functional
MCF7 [15] = assay: Cell cycle arrest in human MCF7 cells assessed as accumulation at G0/G1 phase at 5 uM after 48 hrs by propidium iodide staining-based flow cytometric method (reference value: 55.56 +/- 0.91%); assay type: functional
MCF7 [16] = assay: Induction of apoptosis in human MCF7 cells assessed as early apoptotic cells at 5 uM after 48 hrs by annexin V-propidium iodide staining-based flow cytometry (reference value: 3.2%); assay type: functional
MCF7 [17] = assay: Induction of apoptosis in human MCF7 cells assessed as viable cells at 10 uM after 48 hrs by annexin V-propidium iodide staining-based flow cytometry (reference value: 96.3%); assay type: functional; conditions: MCF7, 48 h, read-out: Activity
[18] = Selectivity index, ratio of IC50 for HUVEC to IC50 for human PANC1 cells
MCF7 [19] = assay: Cell cycle arrest in human MCF7 cells assessed as accumulation at G2/M phase at 10 uM after 48 hrs by propidium iodide staining-based flow cytometric method (reference value: 24.16 +/- 2.29%); assay type: functional
[20] = Selectivity index, ratio of IC50 for HUVEC to IC50 for human HepG2 cells
MCF7 [21] = assay: Cell cycle arrest in human MCF7 cells assessed as accumulation at G0/G1 phase at 15 uM after 48 hrs by propidium iodide staining-based flow cytometric method (reference value: 55.56 +/- 0.91%); assay type: functional
MCF7 [22] = assay: Induction of apoptosis in human MCF7 cells assessed as viable cells at 15 uM after 48 hrs by annexin V-propidium iodide staining-based flow cytometry (reference value: 96.3%); assay type: functional; conditions: MCF7, 48 h, read-out: Activity
MCF7 [23] = assay: Cell cycle arrest in human MCF7 cells assessed as accumulation at G0/G1 phase at 10 uM after 48 hrs by propidium iodide staining-based flow cytometric method (reference value: 55.56 +/- 0.91%); assay type: functional
MCF7 [24] = assay: Induction of apoptosis in human MCF7 cells assessed as membrane shrinkage at 5 to 15 uM after 24 hrs by Hoechst 33258 staining-based inverted microscopy; assay type: functional, cell-based
MCF7 [25] = assay: Induction of apoptosis in human MCF7 cells assessed as necrotic cells at 10 uM after 48 hrs by annexin V-propidium iodide staining-based flow cytometry (reference value: 0.3%); assay type: functional
MCF7 [26] = assay: Induction of apoptosis in human MCF7 cells assessed as late apoptotic cells at 10 uM after 48 hrs by annexin V-propidium iodide staining-based flow cytometry (reference value: 0.1%); assay type: functional
MCF7 [27] = assay: Induction of apoptosis in human MCF7 cells after 48 hrs by annexin V-propidium iodide staining-based flow cytometry; assay type: functional, cell-based
MCF7 [28] = assay: Induction of apoptosis in human MCF7 cells assessed as late apoptotic cells at 5 uM after 48 hrs by annexin V-propidium iodide staining-based flow cytometry (reference value: 0.1%); assay type: functional

CCOc1ccc(Nc2c(-c3ccc(OC)cc3)c(=O)oc3cc(O)ccc23)cc1
IC50 (HCT-116): 46.1 µM | IC50 (HepG2): 36.5 µM | IC50 (MCF7 [1]): 32.5 µM | IC50 (PANC-1): 43.6 µM

COc1ccc(-c2c(Nc3cc(OC)c(OC)c(OC)c3)c3ccc(O)cc3oc2=O)cc1
IC50 (HCT-116): 64.2 µM | IC50 (HepG2): 49.6 µM | IC50 (MCF7 [1]): 56 µM | IC50 (PANC-1): 63.9 µM

COc1ccc(-c2c(Nc3ccc(F)cc3)c3ccccc3oc2=O)cc1
IC50 (HCT-116): 39.4 µM | IC50 (HepG2): 35.5 µM | IC50 (MCF7 [1]): 38.5 µM | IC50 (PANC-1): 32 µM

COc1ccc(-c2c(Nc3ccc4c(c3)OCO4)c3ccc(OC)cc3oc2=O)cc1
IC50 (HepG2): > 100 µM | IC50 (MCF7 [1]): > 100 µM

COc1ccc(Nc2c(-c3ccc(OC)cc3)c(=O)oc3ccccc23)cc1
IC50 (HCT-116): 36.6 µM | IC50 (HepG2): 35.2 µM | IC50 (MCF7 [1]): 34.6 µM | IC50 (PANC-1): 37.5 µM

COc1ccc2c(Nc3ccc(F)cc3)c(C(=O)C(F)(F)F)c(=O)oc2c1
IC50 (HCT-116): 11.7 µM | IC50 (HepG2): 8.26 µM | IC50 (MCF7 [1]): 9.74 µM | IC50 (PANC-1): 12.2 µM

COc1ccc(-c2c(Nc3ccc(C)c(O)c3)c3ccc(O)cc3oc2=O)cc1
IC50 (HepG2): > 75.3 µM | IC50 (MCF7 [1]): > 100 µM

COc1ccc(Nc2c(-c3ccc(OC)cc3)c(=O)oc3cc(O)ccc23)cc1
IC50 (HepG2): 78.8 µM | IC50 (MCF7 [1]): > 100 µM

COc1ccc(-c2c(Nc3ccc(C)c(O)c3)c3ccc(OC)cc3oc2=O)cc1
IC50 (HCT-116): 26.5 µM | IC50 (HepG2): 22.5 µM | IC50 (MCF7 [1]): 34.4 µM | IC50 (PANC-1): 31.3 µM

O=c1[nH]cc(F)c(=O)[nH]1 [FLUOROURACIL]
IC50 (HCT-116): 38.3 µM | IC50 (PANC-1): 47.8 µM

COc1ccc(-c2c(Nc3cccc(C(F)(F)F)c3)c3ccc(O)cc3oc2=O)cc1
IC50 (HCT-116): 55.9 µM | IC50 (HepG2): 53.6 µM | IC50 (MCF7 [1]): 49.1 µM | IC50 (PANC-1): 67.2 µM

COc1ccc(-c2c(Nc3ccc(NC(C)=O)cc3)c3ccc(O)cc3oc2=O)cc1
IC50 (HepG2): > 100 µM | IC50 (MCF7 [1]): > 100 µM

COc1ccc2oc(=O)c(C(=O)C(F)(F)F)c(Nc3ccc4c(c3)OCO4)c2c1
Activity (MCF7 [2]): 4.7% | IC50 (HCT-116): 4.42 µM | IC50 (HepG2): 5.45 µM | Activity (MCF7 [3]): 1.1% | Activity (MCF7 [4]): 3.3% | Activity (MCF7 [5]): 26.13% | viability at 5 µM (MCF7 [6]): 81.3% | IC50 (HUVEC): 26.3 µM | Activity (MCF7 [7]): 63.06% | Activity (MCF7 [8]): Active | Ratio IC50 [9]: 1.59 | Ratio IC50 [10]: 5.94 | Activity (MCF7 [11]): Active | IC50 (MCF7 [1]): 16.6 µM | Activity (MCF7 [12]): 20.2% | Activity (MCF7 [13]): Active | IC50 (PANC-1): 5.16 µM | Activity (MCF7 [14]): 32.1% | Activity (MCF7 [15]): 45.12% | Activity (MCF7 [16]): 16.3% | viability at 10 µM (MCF7 [17]): 76.3% | Ratio IC50 [18]: 5.09 | Activity (MCF7 [19]): 41.93% | Ratio IC50 [20]: 4.82 | Activity (MCF7 [21]): 21.93% | viability at 15 µM (MCF7 [22]): 59.9% | Activity (MCF7 [23]): 30.15% | Activity (MCF7 [24]): Active | Activity (MCF7 [25]): 1.6% | Activity (MCF7 [26]): 1.9% | Activity (MCF7 [27]): Dose-dependent effect | Activity (MCF7 [28]): 1.3%

COc1ccc(Nc2c(C(=O)C(F)(F)F)c(=O)oc3ccc(OC)cc23)cc1
IC50 (HepG2): > 100 µM | IC50 (MCF7 [1]): > 100 µM

COc1ccc2oc(=O)c(C(=O)C(F)(F)F)c(Nc3cc(OC)c(OC)c(OC)c3)c2c1
IC50 (HCT-116): 19.5 µM | IC50 (HepG2): 12.3 µM | IC50 (MCF7 [1]): 15 µM | IC50 (PANC-1): 23.8 µM

COc1ccc(-c2c(Nc3cc(OC)c(OC)c(OC)c3)c3ccc(OC)cc3oc2=O)cc1
IC50 (HepG2): 84.3 µM | IC50 (MCF7 [1]): 89.5 µM

COc1ccc(Nc2c(-c3ccc(OC)cc3)c(=O)oc3cc(OC)ccc23)cc1
IC50 (HCT-116): 35.1 µM | IC50 (HepG2): 39.6 µM | IC50 (MCF7 [1]): 39.2 µM | IC50 (PANC-1): 41 µM

CCOc1ccc(Nc2c(-c3ccc(OC)cc3)c(=O)oc3cc(OC)ccc23)cc1
IC50 (HCT-116): 33 µM | IC50 (HepG2): 31.2 µM | IC50 (MCF7 [1]): 24.3 µM | IC50 (PANC-1): 36.1 µM
